From patent US11299467B2 (Antabio SAS, priority 2017, dated 2022)
Like-named read-outs stand apart in the source and are kept apart here.

Experiments:
Type in all cases: biochemical
VIM-1 = VIM-1 (Pseudomonas aeruginosa, UniProt A0A0F7KYQ8); experiment: In vitro enzyme inhibition assay, purified VIM-1 (imipenem hydrolysis, UV 299 nm)
Description: (§1) Enzyme inhibition assays were performed using purified MBL enzymes (NDM-1; VIM-1; VIM-2; IMP-1) in 10 mM HEPES buffer pH 7.5 in 96-well microtiter plates. Imipenem (300 μM) was used as substrate and its hydrolysis was followed at UV 299 nm during 10 mn every 30 seconds using a Perkin Elmer Envision UV fluorescence plate reader.
(§2) Mean Ki values from multiple experiments are presented below.
(§3) Studies were undertaken to compare the compounds of the invention with structurally similar compounds (“Comp. x”). Experiments were conducted as described above.

IMP-1 = IMP-1 (Serratia marcescens, UniProt P52699); experiment: In vitro enzyme inhibition assay, purified IMP-1 (imipenem hydrolysis, UV 299 nm)
IMP-1, sequence (P52699 19-246, looked up, species assumed): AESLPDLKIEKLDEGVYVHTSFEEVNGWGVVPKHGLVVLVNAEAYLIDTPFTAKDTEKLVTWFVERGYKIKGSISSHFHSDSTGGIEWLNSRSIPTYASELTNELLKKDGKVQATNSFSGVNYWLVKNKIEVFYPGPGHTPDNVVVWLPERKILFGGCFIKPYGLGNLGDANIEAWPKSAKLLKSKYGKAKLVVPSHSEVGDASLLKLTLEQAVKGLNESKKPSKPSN
Description: as §1, §2, §3

NDM-1 = NDM-1 (Klebsiella pneumoniae, UniProt C7C422); experiment: In vitro enzyme inhibition assay, purified NDM-1 (imipenem hydrolysis, UV 299 nm)
NDM-1, sequence (C7C422 29-270, looked up): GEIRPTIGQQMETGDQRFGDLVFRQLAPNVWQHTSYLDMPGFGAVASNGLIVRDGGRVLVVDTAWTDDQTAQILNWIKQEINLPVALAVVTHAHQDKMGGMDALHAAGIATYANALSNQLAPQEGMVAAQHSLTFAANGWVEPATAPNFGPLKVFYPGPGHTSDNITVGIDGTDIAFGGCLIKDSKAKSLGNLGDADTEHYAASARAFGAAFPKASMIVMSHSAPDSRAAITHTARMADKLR
Description: as §1, §2, §3

VIM-2 = VIM-2 (Escherichia coli, UniProt Q5U7L7); experiment: In vitro enzyme inhibition assay, purified VIM-2 (imipenem hydrolysis, UV 299 nm)
Description: as §1, §2, §3

[1] = mean Ki from multiple experiments, imipenem 300 μM, Cheng-Prusoff from IC50, read-out: Ki VIM-1
[2] = mean Ki from multiple experiments, imipenem 300 μM, Cheng-Prusoff from IC50, read-out: Ki IMP-1
[3] = mean Ki from multiple experiments, imipenem 300 μM, Cheng-Prusoff from IC50, read-out: Ki NDM-1
[4] = mean Ki from multiple experiments, imipenem 300 μM, Cheng-Prusoff from IC50, read-out: Ki VIM-2
[5] = comparative study bands, read-out: Ki VIM-1 (comparative study)
[6] = comparative study bands, read-out: Ki VIM-2 (comparative study)
[7] = comparative study bands, read-out: Ki IMP-1 (comparative study)
[8] = comparative study bands, read-out: Ki NDM-1 (comparative study)

SMILES	Ki (VIM-1; [1]) [nM]	Ki (IMP-1; [2]) [nM]	Ki (NDM-1; [3]) [nM]	Ki (VIM-2; [4]) [nM]	Ki (VIM-1; [5]) [nM]	Ki (VIM-2; [6]) [nM]	Ki (IMP-1; [7]) [nM]	Ki (NDM-1; [8]) [nM]
O=C(CC1=NCCN1)Nc1ccc(S(=O)(=O)Nc2scnc2C(=O)O)cc1F [Example 21, 5-[[4-[[2-(4,5-dihydro-1H-imidazol-2-yl)acetyl]amino]-3-fluoro-phenyl]sulfonylamino]thiazole-4-carboxylic acid]	200 to 500	500 to 1000	< 50					
N=C(N)NCCC(=O)Nc1ccc(S(=O)(=O)Nc2scnc2C(=O)O)cc1F [Example 19, 5-[[3-fluoro-4-(3-guanidinopropanoylamino)phenyl]sulfon-ylamino]thiazole-4-carboxylic acid]	200 to 500	1000 to 10000	50 to 200	20 to 50				
N=C(N)NCC(=O)Nc1ccc(S(=O)(=O)Nc2scnc2C(=O)O)cc1C(N)=O [Example 6, 5-[[3-carbamoyl-4-[(2-guanidinoacetyl)amino]phenyl]sulfonylamino]thiazole-4-carboxylic acid]	200 to 500	1000 to 10000	200 to 2000					
CN(CC(=O)Nc1ccc(S(=O)(=O)Nc2scnc2C(=O)O)cc1F)C(=N)N [Example 8, 5-[[4-[[2-[carbamimidoyl(methyl)amino]acetyl]amino]-3-fluoro-phenyl]sulfonylamino]thiazole-4-carboxylic acid]	200 to 500	1000 to 10000	50 to 200					
N=C(N)NCC(=O)Nc1ccc(S(=O)(=O)Nc2scnc2C(=O)O)cc1Cl [Example 17, 5-[[3-chloro-4-[(2-guanidinoacetyl)amino]phenyl]sulfonylamino]thiazole-4-carboxylic acid]	< 200	< 500	50 to 200	< 20	< 150	< 20	< 150	30 to 100
N=C(N)CNC(=O)Cc1ccc(S(=O)(=O)Nc2scnc2C(=O)O)cc1F [Example 25, 5-[[4-[2-[(2-amino-2-imino-ethyl)amino]-2-oxo-ethyl]-3-fluoro-phenyl]sulfonylamino] thiazole-4-carboxylic acid]	200 to 500	500 to 1000	50 to 200					
NCC(=O)Nc1ncc(S(=O)(=O)Nc2scnc2C(=O)O)cc1F [Comp. C, reference compound]					500 to 1000	100 to 150	600 to 5000	100 to 300
N=C(N)NCC(=O)Nc1cc(F)c(S(=O)(=O)Nc2scnc2C(=O)O)cc1F [Example 9, 5-[[2,5-difluoro-4-[(2-guanidinoacetyl)amino]phenyl]sulfonylamino]thiazole-4-carboxylic acid]	200 to 500	1000 to 10000	50 to 200	< 20				
N=C(N)CNC(=O)Nc1ccc(S(=O)(=O)Nc2scnc2C(=O)O)cc1F [Example 30, 5-[[4-[(2-amino-2-imino-ethyl)carbamoylamino]-3-fluoro-phenyl]sulfonylamino]thiazole-4-carboxylic acid]	200 to 500	1000 to 10000	< 50	20 to 50				
N=C(N)NOCC(=O)Nc1ccc(S(=O)(=O)Nc2scnc2C(=O)O)cc1F [Example 42, 5-[[3-fluoro-4-[(2-guanidinooxyacetyl)amino]phenyl]sulfonylamino]thiazole-4-carboxylic acid]	500 to 1000	1000 to 10000	200 to 2000					
NNC(=O)Nc1ccc(S(=O)(=O)Nc2scnc2C(=O)O)cc1F [Comp. I, reference compound]					500 to 1000		600 to 5000	100 to 300
N#Cc1cc(S(=O)(=O)Nc2scnc2C(=O)O)ccc1NC(=O)CN [Comp. F, reference compound]					150 to 300			
C[C@@H](NC(=N)N)C(=O)Nc1ccc(S(=O)(=O)Nc2scnc2C(=O)O)cc1 [Example 11, 5-[[4-[[(2R)-2-guanidinopropanoyl]amino]phenyl]sulfonylamino]thiazole-4-carboxylic acid]	200 to 500	1000 to 10000	200 to 2000					
N=C(N)NCC(=O)Nc1ccc(S(=O)(=O)Nc2scnc2C(=O)O)nn1 [Example 14, 5-[[6-[(2-guanidinoacetyl)amino]pyridazin-3-yl]sulfonylamino]thiazole-4-carboxylic acid]	200 to 500	1000 to 10000	200 to 2000					
CNC(=N)NCC(=O)Nc1ccc(S(=O)(=O)Nc2scnc2C(=O)O)cc1F [Example 40, 5-[[3-fluoro-4-[[2-[(N-methylcarbamimidoyl)amino]acetyl]amino]phenyl]sulfonylamino]thiazole-4-carboxylic acid]	200 to 500	1000 to 10000	200 to 2000					
CN(C)C(=N)CC(=O)Nc1ccc(S(=O)(=O)Nc2scnc2C(=O)O)cc1F [Example 12, 5-[[4-[[3-(dimethylamino)-3-imino-propanyl]amino]-3-fluoro-phenyl]sulfonylamino]thiazole-4-carboxylic acid]	200 to 500	500 to 1000	50 to 200					
N=C(N)NCC(=O)Nc1ccc(S(=O)(=O)Nc2scnc2C(=O)O)cc1 [Example 20, 5-[[4-[(2-guanidinoacetyl)amino]phenyl]sulfonylamino]thiazole-4-carboxylic acid]	200 to 500		50 to 200		150 to 300			100 to 300
N=C(N)N/N=C/C(=O)Nc1ccc(S(=O)(=O)Nc2scnc2C(=O)O)cc1F [Example 43, 5-[[4-[[(2E)-2-(carbamimidoylhydrazono)acetyl]amino]-3-fluoro-phenyl]sulfonylamino]thiazole-4-carboxylic acid]	200 to 500	< 500	50 to 200					
N=C1NCCN1CC(=O)Nc1ccc(S(=O)(=O)Nc2scnc2C(=O)O)cc1F [Example 38, 5-[[3-fluoro-4-[[2-(2-iminoimidazolidin-1-yl)acetyl]amino]phenyl]sulfonylamino]thiazole-4-carboxylic acid]	200 to 500	1000 to 10000	200 to 2000					
O=C(CNC1=NCCN1)Nc1c(F)cc(S(=O)(=O)Nc2scnc2C(=O)O)cc1F [Example 15, 5-[[4-[[2-(4,5-dihydro-1H-imidazol-2-ylamino)acetyl]amino]-3,5-difluoro-phenyl]sulfonylamino]thiazole-4-carboxylic acid]	500 to 1000	1000 to 10000	50 to 200					
N=C(NCC(=O)Nc1ccc(S(=O)(=O)Nc2scnc2C(=O)O)cc1F)N1CCOCC1 [Example 33, 5-[[3-fluoro-4-[[2-(morpholine-4-carboximidoylamino)acetyl]amino]phenyl]sulfonylamino]thiazole-4-carboxylic acid]	200 to 500	1000 to 10000	200 to 2000					
CC(C(=N)N)C(=O)Nc1ccc(S(=O)(=O)Nc2scnc2C(=O)O)cc1F (centres unmarked) [Example 37, 5-[[4-[(3-amino-3-imino-2-methyl-propanoyl)amino]-3-fluoro-phenyl]sulfonylamino]thiazole-4-carboxylic acid]	< 200	1000 to 10000	200 to 2000					
N=C(N)NNC(=O)Cc1ccc(S(=O)(=O)Nc2scnc2C(=O)O)cc1F [Example 24, 5-[[4-[2-(2-carbamimidoylhydrazino)-2-oxo-ethyl]-3-fluoro-phenyl]sulfonylamino]thiazole-4-carboxylic acid]	500 to 1000	1000 to 10000	50 to 200					
